Data: publication PMC7026418, “The kinase polypharmacology landscape of clinical PARP inhibitors” (Scientific Reports, 2020)
Read-outs that look alike come from different tables or passages of the source. Each block holds one compound with its values, some of them ahead of it.

What was measured:
Assay in all cases: biochemical
Design in all cases: DiscoveRx KINOMEscan active site-directed competition binding; percent of control kinase bound to immobilised ligand
[1] = target: T1, TYRO3 (Homo sapiens, UniProt Q06418)
T1 sequence (Q06418 1-890): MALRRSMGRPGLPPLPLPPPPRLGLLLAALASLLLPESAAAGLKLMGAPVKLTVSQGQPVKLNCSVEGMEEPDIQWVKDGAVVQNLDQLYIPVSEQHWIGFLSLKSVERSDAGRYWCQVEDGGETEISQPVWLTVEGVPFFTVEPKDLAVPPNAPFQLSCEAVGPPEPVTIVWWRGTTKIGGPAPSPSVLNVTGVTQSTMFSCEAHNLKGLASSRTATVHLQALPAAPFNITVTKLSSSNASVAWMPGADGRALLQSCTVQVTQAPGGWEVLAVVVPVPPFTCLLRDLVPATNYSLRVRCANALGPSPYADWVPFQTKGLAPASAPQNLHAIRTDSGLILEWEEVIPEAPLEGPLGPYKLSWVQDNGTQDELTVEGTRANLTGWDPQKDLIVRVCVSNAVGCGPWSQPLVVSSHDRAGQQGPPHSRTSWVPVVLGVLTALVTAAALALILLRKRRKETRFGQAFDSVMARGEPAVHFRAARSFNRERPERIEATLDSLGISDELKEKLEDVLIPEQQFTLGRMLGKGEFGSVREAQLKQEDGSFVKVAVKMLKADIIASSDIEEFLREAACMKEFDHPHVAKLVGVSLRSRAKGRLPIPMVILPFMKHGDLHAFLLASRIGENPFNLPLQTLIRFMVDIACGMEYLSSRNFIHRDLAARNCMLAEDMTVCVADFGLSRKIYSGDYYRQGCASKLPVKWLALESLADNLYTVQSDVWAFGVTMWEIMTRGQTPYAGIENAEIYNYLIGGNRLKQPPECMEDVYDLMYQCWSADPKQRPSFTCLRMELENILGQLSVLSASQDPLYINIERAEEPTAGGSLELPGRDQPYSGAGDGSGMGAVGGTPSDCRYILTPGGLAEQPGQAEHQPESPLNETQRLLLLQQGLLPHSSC

[2] = target: T2, NDR1 (Homo sapiens, UniProt Q15208)
T2 construct: gene STK38

[3] = target: VRK2 (Homo sapiens, UniProt Q86Y07)
[4] = target: BMPR1A (Homo sapiens, UniProt P36894)
[5] = target: RET(V804M) (Homo sapiens, UniProt P07949, V804M)
[6] = target: T3, CDK11 (Homo sapiens, UniProt Q9BWU1)
T3 construct: gene CDK19

[7] = target: T4, IRAK3 (Homo sapiens, UniProt Q9Y616)
T4 sequence (Q9Y616 1-596): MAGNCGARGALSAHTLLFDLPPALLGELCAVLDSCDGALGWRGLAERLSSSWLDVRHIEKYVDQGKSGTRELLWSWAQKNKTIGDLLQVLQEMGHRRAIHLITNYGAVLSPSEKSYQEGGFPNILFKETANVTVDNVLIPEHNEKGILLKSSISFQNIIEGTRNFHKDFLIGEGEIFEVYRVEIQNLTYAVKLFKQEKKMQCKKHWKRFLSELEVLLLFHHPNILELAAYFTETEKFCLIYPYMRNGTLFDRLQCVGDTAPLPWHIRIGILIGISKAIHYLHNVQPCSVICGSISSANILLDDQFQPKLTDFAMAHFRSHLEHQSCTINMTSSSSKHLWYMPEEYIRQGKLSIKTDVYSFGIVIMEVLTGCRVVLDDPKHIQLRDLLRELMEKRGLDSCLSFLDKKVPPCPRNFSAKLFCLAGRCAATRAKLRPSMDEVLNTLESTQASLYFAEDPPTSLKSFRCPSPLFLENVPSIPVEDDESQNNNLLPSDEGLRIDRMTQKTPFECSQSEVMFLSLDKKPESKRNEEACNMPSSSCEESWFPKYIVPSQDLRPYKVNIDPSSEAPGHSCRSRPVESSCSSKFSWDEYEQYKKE

[8] = target: T5, BIKE (Homo sapiens, UniProt Q9NSY1)
T5 construct: gene BMP2K

[9] = target: GSK3B (Homo sapiens, UniProt P49841)
[10] = target: T6, CTK (Homo sapiens, UniProt P42679)
T6 construct: gene MATK
T6 sequence (P42679 1-507): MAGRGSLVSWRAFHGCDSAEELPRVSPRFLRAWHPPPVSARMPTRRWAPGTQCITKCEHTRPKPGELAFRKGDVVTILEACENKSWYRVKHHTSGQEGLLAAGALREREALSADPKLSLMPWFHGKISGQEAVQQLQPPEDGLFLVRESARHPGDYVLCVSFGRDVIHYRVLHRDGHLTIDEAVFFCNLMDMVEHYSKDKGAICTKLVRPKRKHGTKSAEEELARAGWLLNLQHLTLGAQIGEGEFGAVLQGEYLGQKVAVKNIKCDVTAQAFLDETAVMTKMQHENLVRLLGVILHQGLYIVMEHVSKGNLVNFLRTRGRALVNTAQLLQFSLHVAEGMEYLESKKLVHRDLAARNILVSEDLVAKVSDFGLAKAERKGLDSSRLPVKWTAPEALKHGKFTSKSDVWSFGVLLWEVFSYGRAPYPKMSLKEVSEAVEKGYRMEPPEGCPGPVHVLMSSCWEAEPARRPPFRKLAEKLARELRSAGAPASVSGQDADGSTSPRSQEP

[11] = read-out: Niraparib (MK-4827) / %Ctrl @ 10000nM
[12] = read-out: Rucaparib / %Ctrl @ 10000nM, binding competition, % of control
[13] = read-out: Olaparib / %Ctrl @ 10000nM
[14] = read-out: Talazoparib (BMN 673) / %Ctrl @ 10000nM

Sequence of BMPR1A (P36894 whole entry): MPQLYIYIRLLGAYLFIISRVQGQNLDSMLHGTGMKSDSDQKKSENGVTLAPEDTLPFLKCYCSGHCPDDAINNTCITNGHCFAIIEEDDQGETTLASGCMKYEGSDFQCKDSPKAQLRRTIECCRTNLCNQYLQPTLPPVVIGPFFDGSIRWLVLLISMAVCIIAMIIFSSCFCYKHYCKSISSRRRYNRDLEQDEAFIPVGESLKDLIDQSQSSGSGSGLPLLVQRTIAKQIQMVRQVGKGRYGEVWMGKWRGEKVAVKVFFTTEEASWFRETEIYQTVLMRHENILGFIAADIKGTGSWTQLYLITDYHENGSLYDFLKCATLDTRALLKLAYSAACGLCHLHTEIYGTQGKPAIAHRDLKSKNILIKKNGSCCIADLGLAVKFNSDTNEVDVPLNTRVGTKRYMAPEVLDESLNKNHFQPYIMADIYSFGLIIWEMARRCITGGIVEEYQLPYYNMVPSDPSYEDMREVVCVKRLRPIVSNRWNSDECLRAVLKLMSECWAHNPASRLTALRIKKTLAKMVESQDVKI
T5 sequence (Q9NSY1 whole entry): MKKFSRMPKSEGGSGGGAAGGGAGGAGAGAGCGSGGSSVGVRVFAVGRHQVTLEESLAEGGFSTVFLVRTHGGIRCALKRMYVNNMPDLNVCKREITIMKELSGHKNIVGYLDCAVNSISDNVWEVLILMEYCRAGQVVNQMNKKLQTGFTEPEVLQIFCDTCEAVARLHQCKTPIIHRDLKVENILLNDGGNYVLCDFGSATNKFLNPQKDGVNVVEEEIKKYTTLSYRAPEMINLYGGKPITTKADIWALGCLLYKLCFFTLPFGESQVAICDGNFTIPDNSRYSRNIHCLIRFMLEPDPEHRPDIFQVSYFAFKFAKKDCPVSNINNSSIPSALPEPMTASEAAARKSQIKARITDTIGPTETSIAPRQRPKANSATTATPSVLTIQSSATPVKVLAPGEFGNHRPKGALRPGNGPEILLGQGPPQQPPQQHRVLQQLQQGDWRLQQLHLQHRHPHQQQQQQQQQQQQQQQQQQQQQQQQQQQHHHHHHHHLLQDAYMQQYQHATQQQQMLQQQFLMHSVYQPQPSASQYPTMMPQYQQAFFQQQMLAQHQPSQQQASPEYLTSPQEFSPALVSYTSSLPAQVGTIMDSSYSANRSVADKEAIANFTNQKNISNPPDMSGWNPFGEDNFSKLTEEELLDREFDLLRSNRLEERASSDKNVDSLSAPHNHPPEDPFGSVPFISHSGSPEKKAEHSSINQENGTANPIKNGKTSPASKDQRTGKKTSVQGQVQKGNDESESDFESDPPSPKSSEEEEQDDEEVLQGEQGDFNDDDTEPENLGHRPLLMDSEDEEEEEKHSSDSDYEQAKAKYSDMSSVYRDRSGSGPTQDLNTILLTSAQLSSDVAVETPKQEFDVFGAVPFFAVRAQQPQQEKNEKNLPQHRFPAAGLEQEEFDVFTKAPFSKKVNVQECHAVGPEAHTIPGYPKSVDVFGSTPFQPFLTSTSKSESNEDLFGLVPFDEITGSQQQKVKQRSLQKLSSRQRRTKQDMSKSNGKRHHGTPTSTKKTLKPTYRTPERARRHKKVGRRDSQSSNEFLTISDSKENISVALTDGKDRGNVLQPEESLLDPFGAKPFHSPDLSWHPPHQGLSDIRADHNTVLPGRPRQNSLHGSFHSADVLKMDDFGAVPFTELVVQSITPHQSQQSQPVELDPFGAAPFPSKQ
T3 sequence (Q9BWU1 whole entry): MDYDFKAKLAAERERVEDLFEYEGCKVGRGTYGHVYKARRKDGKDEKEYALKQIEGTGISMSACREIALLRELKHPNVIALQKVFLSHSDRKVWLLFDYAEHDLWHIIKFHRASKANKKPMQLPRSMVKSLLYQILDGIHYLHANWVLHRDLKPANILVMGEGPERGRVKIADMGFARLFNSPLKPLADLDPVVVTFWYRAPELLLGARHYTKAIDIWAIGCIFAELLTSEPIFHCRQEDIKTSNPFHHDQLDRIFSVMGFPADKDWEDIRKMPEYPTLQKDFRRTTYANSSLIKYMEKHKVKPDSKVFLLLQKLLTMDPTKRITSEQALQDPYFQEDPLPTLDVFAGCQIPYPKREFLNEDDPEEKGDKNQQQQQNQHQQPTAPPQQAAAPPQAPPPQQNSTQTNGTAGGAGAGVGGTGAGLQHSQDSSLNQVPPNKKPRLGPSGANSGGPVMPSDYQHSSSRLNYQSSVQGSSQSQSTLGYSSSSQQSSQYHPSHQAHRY
Sequence of VRK2 (Q86Y07 whole entry): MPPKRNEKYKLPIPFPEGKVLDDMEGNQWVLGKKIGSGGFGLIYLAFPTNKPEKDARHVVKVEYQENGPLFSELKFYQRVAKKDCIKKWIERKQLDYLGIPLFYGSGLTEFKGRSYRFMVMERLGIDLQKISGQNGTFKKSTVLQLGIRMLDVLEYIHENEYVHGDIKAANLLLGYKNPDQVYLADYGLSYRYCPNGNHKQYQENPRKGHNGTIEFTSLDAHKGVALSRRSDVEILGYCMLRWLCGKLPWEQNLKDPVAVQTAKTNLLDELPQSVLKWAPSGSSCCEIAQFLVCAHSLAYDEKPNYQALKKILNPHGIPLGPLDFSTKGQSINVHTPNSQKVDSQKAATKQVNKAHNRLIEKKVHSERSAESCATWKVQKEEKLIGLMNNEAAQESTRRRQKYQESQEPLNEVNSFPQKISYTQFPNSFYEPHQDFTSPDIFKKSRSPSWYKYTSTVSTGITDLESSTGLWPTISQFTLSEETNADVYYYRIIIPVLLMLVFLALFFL
Sequence of GSK3B (P49841 whole entry): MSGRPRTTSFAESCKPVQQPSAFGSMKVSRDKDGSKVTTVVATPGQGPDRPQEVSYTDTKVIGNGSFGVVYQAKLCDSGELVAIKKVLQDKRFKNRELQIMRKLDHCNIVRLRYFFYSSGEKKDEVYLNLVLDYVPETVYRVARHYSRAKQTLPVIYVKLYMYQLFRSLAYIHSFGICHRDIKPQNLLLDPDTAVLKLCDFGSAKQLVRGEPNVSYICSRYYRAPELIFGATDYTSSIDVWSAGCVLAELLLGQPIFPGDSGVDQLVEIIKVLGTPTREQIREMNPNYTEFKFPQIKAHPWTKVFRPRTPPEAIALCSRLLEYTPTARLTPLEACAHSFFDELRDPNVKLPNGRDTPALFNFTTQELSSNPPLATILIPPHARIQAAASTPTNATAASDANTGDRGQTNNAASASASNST
T2 sequence (Q15208 whole entry): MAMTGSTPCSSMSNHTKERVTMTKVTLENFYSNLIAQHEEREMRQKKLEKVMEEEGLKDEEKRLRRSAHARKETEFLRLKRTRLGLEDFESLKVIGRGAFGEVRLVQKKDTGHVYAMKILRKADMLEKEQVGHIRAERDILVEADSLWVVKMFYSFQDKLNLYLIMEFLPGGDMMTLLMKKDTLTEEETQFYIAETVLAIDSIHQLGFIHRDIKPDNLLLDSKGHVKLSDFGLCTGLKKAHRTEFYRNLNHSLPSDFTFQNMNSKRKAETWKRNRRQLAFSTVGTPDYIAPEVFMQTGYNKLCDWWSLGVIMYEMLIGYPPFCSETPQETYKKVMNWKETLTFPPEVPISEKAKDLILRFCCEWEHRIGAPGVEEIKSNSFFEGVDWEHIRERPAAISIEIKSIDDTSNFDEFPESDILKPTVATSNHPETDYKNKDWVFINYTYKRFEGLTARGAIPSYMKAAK
Sequence of RET(V804M) (P07949 whole entry V804M): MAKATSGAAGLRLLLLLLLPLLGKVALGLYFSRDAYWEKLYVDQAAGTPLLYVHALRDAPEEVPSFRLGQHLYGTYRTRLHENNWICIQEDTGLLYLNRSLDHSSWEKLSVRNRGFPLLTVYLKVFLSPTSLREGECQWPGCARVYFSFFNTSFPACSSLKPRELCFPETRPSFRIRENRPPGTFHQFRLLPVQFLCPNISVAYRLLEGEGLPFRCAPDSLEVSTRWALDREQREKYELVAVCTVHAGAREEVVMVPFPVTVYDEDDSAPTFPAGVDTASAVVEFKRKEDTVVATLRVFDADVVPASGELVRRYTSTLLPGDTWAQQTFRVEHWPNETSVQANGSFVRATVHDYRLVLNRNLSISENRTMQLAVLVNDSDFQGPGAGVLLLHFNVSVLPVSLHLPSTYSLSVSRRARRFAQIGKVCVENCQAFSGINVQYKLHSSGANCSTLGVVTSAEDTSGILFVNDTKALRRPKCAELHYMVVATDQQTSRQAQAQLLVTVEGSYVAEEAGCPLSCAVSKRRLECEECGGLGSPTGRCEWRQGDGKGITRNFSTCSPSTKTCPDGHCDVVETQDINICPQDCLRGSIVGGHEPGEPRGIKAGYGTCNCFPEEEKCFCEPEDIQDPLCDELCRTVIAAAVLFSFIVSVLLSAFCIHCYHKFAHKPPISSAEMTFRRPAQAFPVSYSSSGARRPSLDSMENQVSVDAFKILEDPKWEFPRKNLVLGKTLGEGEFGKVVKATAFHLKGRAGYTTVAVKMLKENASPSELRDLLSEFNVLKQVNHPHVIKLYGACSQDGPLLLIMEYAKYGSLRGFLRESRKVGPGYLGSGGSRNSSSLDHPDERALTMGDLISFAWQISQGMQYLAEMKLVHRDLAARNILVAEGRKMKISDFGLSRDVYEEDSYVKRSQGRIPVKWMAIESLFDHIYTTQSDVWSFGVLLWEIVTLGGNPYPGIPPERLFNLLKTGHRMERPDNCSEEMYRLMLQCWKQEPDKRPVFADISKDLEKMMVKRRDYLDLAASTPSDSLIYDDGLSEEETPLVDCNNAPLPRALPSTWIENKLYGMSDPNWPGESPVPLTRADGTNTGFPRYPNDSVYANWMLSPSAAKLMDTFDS

SMILES: NC(=O)c1cccc2cn(-c3ccc([C@@H]4CCCNC4)cc3)nc12 [Niraparib]
percent of control binding at 10 µM [1, 11]: 89%
percent of control binding at 10 µM [2, 11]: 100%
percent of control binding at 10 µM [3, 11]: 65%
percent of control binding at 10 µM [4, 11]: 94%
percent of control binding at 10 µM [5, 11]: 79%
percent of control binding at 10 µM [6, 11]: 93%
percent of control binding at 10 µM [7, 11]: 90%
percent of control binding at 10 µM [8, 11]: 81%
percent of control binding at 10 µM [9, 11]: 88%
percent of control binding at 10 µM [10, 11]: 100%

percent of control binding at 10 µM [1, 12]: 100%
percent of control binding at 10 µM [2, 12]: 69%
percent of control binding at 10 µM [3, 12]: 95%
percent of control binding at 10 µM [4, 12]: 91%
percent of control binding at 10 µM [5, 12]: 99%
percent of control binding at 10 µM [6, 12]: 94%
percent of control binding at 10 µM [7, 12]: 86%
percent of control binding at 10 µM [8, 12]: 72%
percent of control binding at 10 µM [9, 12]: 89%
percent of control binding at 10 µM [10, 12]: 76%
SMILES: CNCc1ccc(-c2[nH]c3cc(F)cc4c3c2CCNC4=O)cc1 [Rucaparib]

percent of control binding at 10 µM [1, 13]: 100%
percent of control binding at 10 µM [2, 13]: 100%
percent of control binding at 10 µM [3, 13]: 99%
percent of control binding at 10 µM [4, 13]: 100%
percent of control binding at 10 µM [5, 13]: 90%
percent of control binding at 10 µM [6, 13]: 85%
percent of control binding at 10 µM [7, 13]: 82%
percent of control binding at 10 µM [8, 13]: 100%
percent of control binding at 10 µM [9, 13]: 98%
percent of control binding at 10 µM [10, 13]: 96%
SMILES: O=C(c1cc(Cc2n[nH]c(=O)c3ccccc23)ccc1F)N1CCN(C(=O)C2CC2)CC1 [Olaparib]

percent of control binding at 10 µM [1, 14]: 100%
percent of control binding at 10 µM [2, 14]: 72%
percent of control binding at 10 µM [3, 14]: 100%
percent of control binding at 10 µM [4, 14]: 100%
percent of control binding at 10 µM [5, 14]: 97%
percent of control binding at 10 µM [6, 14]: 93%
percent of control binding at 10 µM [7, 14]: 100%
percent of control binding at 10 µM [8, 14]: 93%
percent of control binding at 10 µM [9, 14]: 100%
percent of control binding at 10 µM [10, 14]: 78%
SMILES: Cn1ncnc1[C@H]1c2n[nH]c(=O)c3cc(F)cc(c23)N[C@@H]1c1ccc(F)cc1 [Talazoparib]
